Results: ChEMBL document CHEMBL4251615, “Discovery of anilino-furo[2,3-d]pyrimidine derivatives as dual inhibitors of EGFR/HER2 tyrosine kinase and their anticancer activity” (Eur J Med Chem, 2018)

What was measured:
Format in all cases: functional
EKVX = assay: Growth inhibition of human EKVX cells assessed as cell growth at 10 uM incubated for 48 hrs by sulforhodamine B assay relative to control; details: read-out: Activity
PC-3 = assay: Growth inhibition of human PC3 cells assessed as cell growth at 10 uM incubated for 48 hrs by sulforhodamine B assay relative to control; details: PC-3, 48 h, read-out: Activity
OVCAR-5 = assay: Growth inhibition of human OVCAR5 cells assessed as cell growth at 10 uM incubated for 48 hrs by sulforhodamine B assay relative to control; details: OVCAR-5, 48 h, read-out: Activity
786-0 = assay: Growth inhibition of human 786-0 cells assessed as cell growth at 10 uM incubated for 48 hrs by sulforhodamine B assay relative to control; details: 786-0, 48 h, read-out: Activity
COLO 205 = assay: Growth inhibition of human COLO205 cells assessed as cell growth at 10 uM incubated for 48 hrs by sulforhodamine B assay relative to control; details: COLO 205, 48 h, read-out: Activity
T47D = assay: Growth inhibition of human T47D cells assessed as cell growth at 10 uM incubated for 48 hrs by sulforhodamine B assay relative to control; details: read-out: Activity
SF-295 = assay: Growth inhibition of human SF295 cells assessed as cell growth at 10 uM incubated for 48 hrs by sulforhodamine B assay relative to control; details: SF-295, 48 h, read-out: Activity
SW-620 = assay: Growth inhibition of human SW620 cells assessed as cell growth at 10 uM incubated for 48 hrs by sulforhodamine B assay relative to control; details: SW-620, 48 h, read-out: Activity
LOX IMVI = assay: Growth inhibition of human LOXIMVI cells assessed as cell growth at 10 uM incubated for 48 hrs by sulforhodamine B assay relative to control; details: read-out: Activity
SF-268 = assay: Growth inhibition of human SF268 cells assessed as cell growth at 10 uM incubated for 48 hrs by sulforhodamine B assay relative to control; details: SF-268, 48 h, read-out: Activity
K562 = assay: Growth inhibition of human K562 cells assessed as cell growth at 10 uM incubated for 48 hrs by sulforhodamine B assay relative to control; details: K562, 48 h, read-out: Activity
SR = assay: Growth inhibition of human SR cells assessed as cell growth at 10 uM incubated for 48 hrs by sulforhodamine B assay relative to control; details: read-out: Activity
MDA-MB-435 = assay: Growth inhibition of human MDA-MB-435 cells assessed as cell growth at 10 uM incubated for 48 hrs by sulforhodamine B assay relative to control; details: MDA-MB-435, 48 h, read-out: Activity
SF-539 = assay: Growth inhibition of human SF539 cells assessed as cell growth at 10 uM incubated for 48 hrs by sulforhodamine B assay relative to control; details: SF-539, 48 h, read-out: Activity
SNB-19 = assay: Growth inhibition of human SNB19 cells assessed as cell growth at 10 uM incubated for 48 hrs by sulforhodamine B assay relative to control; details: SNB-19, 48 h, read-out: Activity
NCI-H23 = assay: Growth inhibition of human NCI-H23 cells assessed as cell growth at 10 uM incubated for 48 hrs by sulforhodamine B assay relative to control; details: NCI-H23, 48 h, read-out: Activity
CCRF-CEM = assay: Growth inhibition of human CCRF-CEM cells assessed as cell growth at 10 uM incubated for 48 hrs by sulforhodamine B assay relative to control; details: read-out: Activity
SK-MEL-5 = assay: Growth inhibition of human SK-MEL-5 cells assessed as cell growth at 10 uM incubated for 48 hrs by sulforhodamine B assay relative to control; details: SK-MEL-5, 48 h, read-out: Activity
SK-MEL-28 = assay: Growth inhibition of human SK-MEL-28 cells assessed as cell growth at 10 uM incubated for 48 hrs by sulforhodamine B assay relative to control; details: SK-MEL-28, 48 h, read-out: Activity
OVCAR-3 = assay: Growth inhibition of human OVCAR3 cells assessed as cell growth at 10 uM incubated for 48 hrs by sulforhodamine B assay relative to control; details: OVCAR-3, 48 h, read-out: Activity
MOLT-4 = assay: Growth inhibition of human MOLT4 cells assessed as cell growth at 10 uM incubated for 48 hrs by sulforhodamine B assay relative to control; details: MOLT-4, 48 h, read-out: Activity
MCF7 = assay: Growth inhibition of human MCF7 cells assessed as cell growth at 10 uM incubated for 48 hrs by sulforhodamine B assay relative to control; details: MCF7, 48 h, read-out: Activity
UO-31 = assay: Growth inhibition of human UO31 cells assessed as cell growth at 10 uM incubated for 48 hrs by sulforhodamine B assay relative to control; details: UO-31, 48 h, read-out: Activity
CAKI-1 = assay: Growth inhibition of human Caki1 cells assessed as cell growth at 10 uM incubated for 48 hrs by sulforhodamine B assay relative to control; details: CAKI-1, 48 h, read-out: Activity
HCT-15 = assay: Growth inhibition of human HCT15 cells assessed as cell growth at 10 uM incubated for 48 hrs by sulforhodamine B assay relative to control; details: HCT-15, 48 h, read-out: Activity
NCI-H522 = assay: Growth inhibition of human NCI-H522 cells assessed as cell growth at 10 uM incubated for 48 hrs by sulforhodamine B assay relative to control; details: NCI-H522, 48 h, read-out: Activity
RPMI-8226 = assay: Growth inhibition of human RPMI8226 cells assessed as cell growth at 10 uM incubated for 48 hrs by sulforhodamine B assay relative to control; details: RPMI-8226, 48 h, read-out: Activity
OVCAR-4 = assay: Growth inhibition of human OVCAR4 cells assessed as cell growth at 10 uM incubated for 48 hrs by sulforhodamine B assay relative to control; details: OVCAR-4, 48 h, read-out: Activity
A549 = assay: Growth inhibition of human A549/ATCC cells assessed as cell growth at 10 uM incubated for 48 hrs by sulforhodamine B assay relative to control; details: A549, 48 h, read-out: Activity
RXF 393 = assay: Growth inhibition of human RXF393 cells assessed as cell growth at 10 uM incubated for 48 hrs by sulforhodamine B assay relative to control; details: RXF 393, 48 h, read-out: Activity
HOP-62 = assay: Growth inhibition of human HOP62 cells assessed as cell growth at 10 uM incubated for 48 hrs by sulforhodamine B assay relative to control; details: HOP-62, 48 h, read-out: Activity
NCI/ADR-RES = assay: Growth inhibition of human NCI/ADR-RES cells assessed as cell growth at 10 uM incubated for 48 hrs by sulforhodamine B assay relative to control; details: read-out: Activity
Malme-3M = assay: Growth inhibition of human MALME-3M cells assessed as cell growth at 10 uM incubated for 48 hrs by sulforhodamine B assay relative to control; details: read-out: Activity

Structure (SMILES) | growth at 10 µM (EKVX) [%] | growth at 10 µM (PC-3) [%] | growth at 10 µM (OVCAR-5) [%] | growth at 10 µM (786-0) [%] | growth at 10 µM (COLO 205) [%] | growth at 10 µM (T47D) [%] | growth at 10 µM (SF-295) [%] | growth at 10 µM (SW-620) [%] | growth at 10 µM (LOX IMVI) [%] | growth at 10 µM (SF-268) [%] | growth at 10 µM (K562) [%] | growth at 10 µM (SR) [%] | growth at 10 µM (MDA-MB-435) [%] | growth at 10 µM (SF-539) [%] | growth at 10 µM (SNB-19) [%] | growth at 10 µM (NCI-H23) [%] | growth at 10 µM (CCRF-CEM) [%] | growth at 10 µM (SK-MEL-5) [%] | growth at 10 µM (SK-MEL-28) [%] | growth at 10 µM (OVCAR-3) [%] | other results
CCCNC(=O)c1c(C)oc2ncnc(Nc3cccc(Cl)c3)c12 | 98.8 | 81.9 | 112 | 105 | 104 | 53.5 | 90.1 | 106 | 96.4 | 95.5 | 90.1 | 86 | 103 | 99.1 | 106 | 91.5 | 93.9 | 89.9 | 112 | 106 | growth at 10 µM (MOLT-4): 95.4%; growth at 10 µM (MCF7): 93.5%; growth at 10 µM (UO-31): 72.4%; growth at 10 µM (CAKI-1): 101%; growth at 10 µM (HCT-15): 101%; growth at 10 µM (NCI-H522): 54.9%; growth at 10 µM (RPMI-8226): 95.4%; growth at 10 µM (OVCAR-4): 101%; growth at 10 µM (A549): 82.7%; growth at 10 µM (RXF 393): 111%; growth at 10 µM (HOP-62): 87.7%; growth at 10 µM (NCI/ADR-RES): 94.1%; growth at 10 µM (Malme-3M): 121%
Cc1oc2ncnc(Nc3cccc(Cl)c3)c2c1CO | 64.4 | 71.3 | 74.3 | 78.3 | 93.9 | 78.8 | 93.2 | 93.2 | 98.4 | 92.9 | 85.4 | 62.2 | 93.1 | 91.6 | 87.3 | 87.5 | 100 | 87.9 | 106 | 102 | growth at 10 µM (MOLT-4): 86.2%; growth at 10 µM (MCF7): 89.7%; growth at 10 µM (UO-31): 56.9%; growth at 10 µM (CAKI-1): 53.7%; growth at 10 µM (HCT-15): 67.3%; growth at 10 µM (NCI-H522): 89.8%; growth at 10 µM (RPMI-8226): 70.4%; growth at 10 µM (OVCAR-4): 92.5%; growth at 10 µM (A549): 82.1%; growth at 10 µM (RXF 393): 85.4%; growth at 10 µM (HOP-62): 89%; growth at 10 µM (NCI/ADR-RES): 86%; growth at 10 µM (Malme-3M): 88.1%
Cc1cccc(Nc2ncnc3oc(C)c(C(=O)NCCO)c23)c1 | 91.8 | 96.1 | 95.3 | 99 | 99 | 84.3 | 96.3 | 96 | 93 | 98.4 | 90.2 | 90.8 | 97.2 | 92.5 | 103 | 92.8 | 74 | 94.6 | 102 | 108 | growth at 10 µM (MOLT-4): 57.4%; growth at 10 µM (MCF7): 94.8%; growth at 10 µM (UO-31): 86.2%; growth at 10 µM (CAKI-1): 87.2%; growth at 10 µM (HCT-15): 93.7%; growth at 10 µM (NCI-H522): 91.8%; growth at 10 µM (RPMI-8226): 95.7%; growth at 10 µM (OVCAR-4): 95%; growth at 10 µM (A549): 89.4%; growth at 10 µM (RXF 393): 81.1%; growth at 10 µM (HOP-62): 98.2%; growth at 10 µM (NCI/ADR-RES): 92.4%; growth at 10 µM (Malme-3M): 109%
Cc1oc2ncnc(Nc3cccc(F)c3)c2c1C(=O)O | 101 | 108 | 97.6 | 92 | 109 | 95.6 | 98.7 | 101 | 98 | 96.3 | 98.5 | 104 | 104 | 92.5 | 94.6 | 97.6 | 110 | 99.6 | 103 | 102 | growth at 10 µM (MOLT-4): 102%; growth at 10 µM (MCF7): 97.6%; growth at 10 µM (UO-31): 92.7%; growth at 10 µM (CAKI-1): 93.8%; growth at 10 µM (HCT-15): 101%; growth at 10 µM (NCI-H522): 93.9%; growth at 10 µM (RPMI-8226): 107%; growth at 10 µM (OVCAR-4): 101%; growth at 10 µM (A549): 101%; growth at 10 µM (RXF 393): 115%; growth at 10 µM (HOP-62): 98.4%; growth at 10 µM (NCI/ADR-RES): 105%; growth at 10 µM (Malme-3M): 107%
CCOC(=O)c1c(C)oc2ncnc(Nc3cccc(F)c3)c12 | 101 | 94.7 | 102 | 95.7 | 104 | 92.7 | 94.8 | 94.2 | 105 | 102 | 101 | 78.6 | 101 | 99.4 | 93.7 | 97.8 | 98.8 | 99 | 98.2 | 108 | growth at 10 µM (MOLT-4): 62.5%; growth at 10 µM (MCF7): 95.4%; growth at 10 µM (UO-31): 101%; growth at 10 µM (CAKI-1): 92%; growth at 10 µM (HCT-15): 95.3%; growth at 10 µM (NCI-H522): 94.3%; growth at 10 µM (RPMI-8226): 107%; growth at 10 µM (OVCAR-4): 108%; growth at 10 µM (A549): 93%; growth at 10 µM (RXF 393): 97.6%; growth at 10 µM (HOP-62): 101%; growth at 10 µM (NCI/ADR-RES): 96.1%; growth at 10 µM (Malme-3M): 131%
CCOC(=O)c1c(C)oc2ncnc(Nc3ccc(OCc4ccc(Cl)cc4)cc3)c12 | 102 | 100 | 100 | 98 | 111 | 84 | 97.9 | 106 | 95.8 | 109 | 83.8 | 92.1 | 104 | 98.2 | 111 | 95.4 | 110 | 95.8 | 101 | 117 | growth at 10 µM (MOLT-4): 109%; growth at 10 µM (MCF7): 102%; growth at 10 µM (UO-31): 99.5%; growth at 10 µM (CAKI-1): 94%; growth at 10 µM (HCT-15): 108%; growth at 10 µM (NCI-H522): 84%; growth at 10 µM (RPMI-8226): 111%; growth at 10 µM (OVCAR-4): 104%; growth at 10 µM (A549): 86.5%; growth at 10 µM (RXF 393): 85.9%; growth at 10 µM (HOP-62): 97.7%; growth at 10 µM (NCI/ADR-RES): 101%; growth at 10 µM (Malme-3M): 123%
